Measured values from patent publication US9113629B2, “4-amino-6-(4-substituted-phenyl)-picolinates and 6-amino-2-(4-substituted-phenyl)-pyrimidine-4-carboxylates and their use as herbicides” (DOW AGROSCIENCES LLC, priority 2013, dated 2015).

What follows are molecules tested on Key Grass and Sedge Weeds as well as Grass Crops (assay: Post-emergent Test II herbicidal activity (Table 6)). Details: post-emergence, 336 h, CYPES: yellow nutsedge (Cyperus esculentus), 70 g ai/ha, read-out: Visual Growth Reduction (%) 14 Days After Application, CYPES.
Format: in vivo
Outline: (§1)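 Greenhouse-grown plants at first or second true leaf stage were sprayed post-emergence with compound in acetone/DMSO-based aqueous spray containing crop oil concentrate and surfactant, at 187 L/ha, highest rate plus ½× to 1/16× dilutions. After 14 d, injury was scored visually versus untreated plants, 0 (none) to 100% (complete kill).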

| SMILES | pest or weed control at 70 g/ha |
| --- | --- |
| COC(=O)c1nc(-c2ccccc2F)c(F)c(N)c1Cl [Compound 206] | 0 to 29% |

Same assay, conditions: post-emergence, 336 h, CYPES: yellow nutsedge (Cyperus esculentus), 140 g ai/ha, read-out: Visual Growth Reduction (%) 14 Days After Application, CYPES

| SMILES | pest or weed control at 140 g/ha |
| --- | --- |
| COC(=O)c1nc(-c2ccccc2F)c(F)c(N)c1Cl [Compound 206] | 0 to 29% |

Same assay, conditions: post-emergence, 336 h, DIGSA: crabgrass (Digitaria sanguinalis), 70 g ai/ha, read-out: Visual Growth Reduction (%) 14 Days After Application, DIGSA

| SMILES | pest or weed control at 70 g/ha |
| --- | --- |
| COC(=O)c1nc(-c2ccccc2F)c(F)c(N)c1Cl [Compound 206] | 0 to 29% |

Same assay, conditions: post-emergence, 336 h, DIGSA: crabgrass (Digitaria sanguinalis), 140 g ai/ha, read-out: Visual Growth Reduction (%) 14 Days After Application, DIGSA

| SMILES | pest or weed control at 140 g/ha |
| --- | --- |
| COC(=O)c1nc(-c2ccccc2F)c(F)c(N)c1Cl [Compound 206] | 0 to 29% |

Same assay, conditions: post-emergence, 336 h, ECHCG: barnyardgrass (Echinochloa crus-galli), 70 g ai/ha, read-out: Visual Growth Reduction (%) 14 Days After Application, ECHCG

| SMILES | pest or weed control at 70 g/ha |
| --- | --- |
| COC(=O)c1nc(-c2ccccc2F)c(F)c(N)c1Cl [Compound 206] | 0 to 29% |

Same assay, conditions: post-emergence, 336 h, ECHCG: barnyardgrass (Echinochloa crus-galli), 140 g ai/ha, read-out: Visual Growth Reduction (%) 14 Days After Application, ECHCG

| SMILES | pest or weed control at 140 g/ha |
| --- | --- |
| COC(=O)c1nc(-c2ccccc2F)c(F)c(N)c1Cl [Compound 206] | 0 to 29% |

Same assay, conditions: post-emergence, 336 h, ORYSA: rice (Oryza sativa), crop, 70 g ai/ha, read-out: Visual Growth Reduction (%) 14 Days After Application, ORYSA

| SMILES | pest or weed control at 70 g/ha |
| --- | --- |
| COC(=O)c1nc(-c2ccccc2F)c(F)c(N)c1Cl [Compound 206] | 0 to 29% |

Same assay, conditions: post-emergence, 336 h, ORYSA: rice (Oryza sativa), crop, 140 g ai/ha, read-out: Visual Growth Reduction (%) 14 Days After Application, ORYSA

| SMILES | pest or weed control at 140 g/ha |
| --- | --- |
| COC(=O)c1nc(-c2ccccc2F)c(F)c(N)c1Cl [Compound 206] | 0 to 29% |

Same assay, conditions: post-emergence, 336 h, SETFA: giant foxtail (Setaria faberi), 70 g ai/ha, read-out: Visual Growth Reduction (%) 14 Days After Application, SETFA

| SMILES | pest or weed control at 70 g/ha |
| --- | --- |
| COC(=O)c1nc(-c2ccccc2F)c(F)c(N)c1Cl [Compound 206] | 0 to 29% |

Same assay, conditions: post-emergence, 336 h, SETFA: giant foxtail (Setaria faberi), 140 g ai/ha, read-out: Visual Growth Reduction (%) 14 Days After Application, SETFA

| SMILES | pest or weed control at 140 g/ha |
| --- | --- |
| COC(=O)c1nc(-c2ccccc2F)c(F)c(N)c1Cl [Compound 206] | 0 to 29% |

Same assay, conditions: post-emergence, 336 h, SORVU: grain sorghum (Sorghum vulgare), 70 g ai/ha, read-out: Visual Growth Reduction (%) 14 Days After Application, SORVU

| SMILES | pest or weed control at 70 g/ha |
| --- | --- |
| COC(=O)c1nc(-c2ccccc2F)c(F)c(N)c1Cl [Compound 206] | 0 to 29% |

Same assay, conditions: post-emergence, 336 h, SORVU: grain sorghum (Sorghum vulgare), 140 g ai/ha, read-out: Visual Growth Reduction (%) 14 Days After Application, SORVU

| SMILES | pest or weed control at 140 g/ha |
| --- | --- |
| COC(=O)c1nc(-c2ccccc2F)c(F)c(N)c1Cl [Compound 206] | 0 to 29% |

Same assay, conditions: post-emergence, 336 h, TRZSS (wheat, Triticum aestivum), crop, 70 g ai/ha, read-out: Visual Growth Reduction (%) 14 Days After Application, TRZSS

| SMILES | pest or weed control at 70 g/ha |
| --- | --- |
| COC(=O)c1nc(-c2ccccc2F)c(F)c(N)c1Cl [Compound 206] | 0 to 29% |

Same assay, conditions: post-emergence, 336 h, TRZSS (wheat, Triticum aestivum), crop, 140 g ai/ha, read-out: Visual Growth Reduction (%) 14 Days After Application, TRZSS

| SMILES | pest or weed control at 140 g/ha |
| --- | --- |
| COC(=O)c1nc(-c2ccccc2F)c(F)c(N)c1Cl [Compound 206] | 0 to 29% |

Same assay, conditions: post-emergence, 336 h, ZEAMX: maize, corn (Zea mays), crop, 70 g ai/ha, read-out: Visual Growth Reduction (%) 14 Days After Application, ZEAMX

| SMILES | pest or weed control at 70 g/ha |
| --- | --- |
| COC(=O)c1nc(-c2ccccc2F)c(F)c(N)c1Cl [Compound 206] | 0 to 29% |

Same assay, conditions: post-emergence, 336 h, ZEAMX: maize, corn (Zea mays), crop, 140 g ai/ha, read-out: Visual Growth Reduction (%) 14 Days After Application, ZEAMX

| SMILES | pest or weed control at 140 g/ha |
| --- | --- |
| COC(=O)c1nc(-c2ccccc2F)c(F)c(N)c1Cl [Compound 206] | 0 to 29% |

The molecules below were run on Key Broadleaf Weed and Crop Species (assay: Post-emergent Test II herbicidal activity (Table 5)). Details: post-emergence, 336 h; ABUTH: velvetleaf (Abutilon theophrasti); application rate 70 g ai/ha; 14 days after application; read-out: Visual Growth Reduction (%) 14 Days After Application, ABUTH.
Format: in vivo
Outline: as §1

| SMILES | pest or weed control at 70 g/ha |
| --- | --- |
| COC(=O)c1nc(-c2ccccc2F)c(F)c(N)c1Cl [Compound 206] | 95 to 100% |

Same assay, conditions: post-emergence, 336 h; ABUTH: velvetleaf (Abutilon theophrasti); application rate 140 g ai/ha; 14 days after application; read-out: Visual Growth Reduction (%) 14 Days After Application, ABUTH

| SMILES | pest or weed control at 140 g/ha |
| --- | --- |
| COC(=O)c1nc(-c2ccccc2F)c(F)c(N)c1Cl [Compound 206] | 95 to 100% |

Same assay, conditions: post-emergence, 336 h; AMARE: redroot pigweed (Amaranthus retroflexus); application rate 70 g ai/ha; 14 days after application; read-out: Visual Growth Reduction (%) 14 Days After Application, AMARE

| SMILES | pest or weed control at 70 g/ha |
| --- | --- |
| COC(=O)c1nc(-c2ccccc2F)c(F)c(N)c1Cl [Compound 206] | 95 to 100% |

Same assay, conditions: post-emergence, 336 h; AMARE: redroot pigweed (Amaranthus retroflexus); application rate 140 g ai/ha; 14 days after application; read-out: Visual Growth Reduction (%) 14 Days After Application, AMARE

| SMILES | pest or weed control at 140 g/ha |
| --- | --- |
| COC(=O)c1nc(-c2ccccc2F)c(F)c(N)c1Cl [Compound 206] | 95 to 100% |

Same assay, conditions: post-emergence, 336 h; BRSNN: oilseed-rape, canola (Brassica napus); application rate 70 g ai/ha; 14 days after application; read-out: Visual Growth Reduction (%) 14 Days After Application, BRSNN

| SMILES | pest or weed control at 70 g/ha |
| --- | --- |
| COC(=O)c1nc(-c2ccccc2F)c(F)c(N)c1Cl [Compound 206] | 75 to 84% |

Same assay, conditions: post-emergence, 336 h; BRSNN: oilseed-rape, canola (Brassica napus); application rate 140 g ai/ha; 14 days after application; read-out: Visual Growth Reduction (%) 14 Days After Application, BRSNN

| SMILES | pest or weed control at 140 g/ha |
| --- | --- |
| COC(=O)c1nc(-c2ccccc2F)c(F)c(N)c1Cl [Compound 206] | 85 to 94% |

Same assay, conditions: post-emergence, 336 h; CHEAL: lambsquarters (Chenopodium album); application rate 70 g ai/ha; 14 days after application; read-out: Visual Growth Reduction (%) 14 Days After Application, CHEAL

| SMILES | pest or weed control at 70 g/ha |
| --- | --- |
| COC(=O)c1nc(-c2ccccc2F)c(F)c(N)c1Cl [Compound 206] | 85 to 94% |

Same assay, conditions: post-emergence, 336 h; CHEAL: lambsquarters (Chenopodium album); application rate 140 g ai/ha; 14 days after application; read-out: Visual Growth Reduction (%) 14 Days After Application, CHEAL

| SMILES | pest or weed control at 140 g/ha |
| --- | --- |
| COC(=O)c1nc(-c2ccccc2F)c(F)c(N)c1Cl [Compound 206] | 85 to 94% |

Same assay, conditions: post-emergence, 336 h; EPHHL: wild poinsettia (Euphorbia heterophylla); application rate 70 g ai/ha; 14 days after application; read-out: Visual Growth Reduction (%) 14 Days After Application, EPHHL

| SMILES | pest or weed control at 70 g/ha |
| --- | --- |
| COC(=O)c1nc(-c2ccccc2F)c(F)c(N)c1Cl [Compound 206] | 95 to 100% |

Same assay, conditions: post-emergence, 336 h; EPHHL: wild poinsettia (Euphorbia heterophylla); application rate 140 g ai/ha; 14 days after application; read-out: Visual Growth Reduction (%) 14 Days After Application, EPHHL

| SMILES | pest or weed control at 140 g/ha |
| --- | --- |
| COC(=O)c1nc(-c2ccccc2F)c(F)c(N)c1Cl [Compound 206] | 95 to 100% |

Same assay, conditions: post-emergence, 336 h; HELAN: sunflower (Helianthus annuus); application rate 70 g ai/ha; 14 days after application; read-out: Visual Growth Reduction (%) 14 Days After Application, HELAN

| SMILES | pest or weed control at 70 g/ha |
| --- | --- |
| COC(=O)c1nc(-c2ccccc2F)c(F)c(N)c1Cl [Compound 206] | 60 to 74% |

Same assay, conditions: post-emergence, 336 h; HELAN: sunflower (Helianthus annuus); application rate 140 g ai/ha; 14 days after application; read-out: Visual Growth Reduction (%) 14 Days After Application, HELAN

| SMILES | pest or weed control at 140 g/ha |
| --- | --- |
| COC(=O)c1nc(-c2ccccc2F)c(F)c(N)c1Cl [Compound 206] | 85 to 94% |

Same assay, conditions: post-emergence, 336 h; VIOTR: wild pansy (Viola tricolor); application rate 70 g ai/ha; 14 days after application; read-out: Visual Growth Reduction (%) 14 Days After Application, VIOTR

| SMILES | pest or weed control at 70 g/ha |
| --- | --- |
| COC(=O)c1nc(-c2ccccc2F)c(F)c(N)c1Cl [Compound 206] | 45 to 59% |

Same assay, conditions: post-emergence, 336 h; VIOTR: wild pansy (Viola tricolor); application rate 140 g ai/ha; 14 days after application; read-out: Visual Growth Reduction (%) 14 Days After Application, VIOTR

| SMILES | pest or weed control at 140 g/ha |
| --- | --- |
| COC(=O)c1nc(-c2ccccc2F)c(F)c(N)c1Cl [Compound 206] | 60 to 74% |
